In patent US10940139B2, “Compounds that interact with the Ras superfamily for the treatment of cancers, inflammatory diseases, rasopathies, and fibrotic disease” (Shy Therapeutics LLC, priority 2017, dated 2021):

The molecules below were run on MAPK phosphorylation in PANC-1 pancreatic cancer cell line (assay: MAPK cell-based phosphorylation assay (cell-direct ELISA, EGF stimulation)). Settings: Homo sapiens, * = tested at 10 μM.
Method in brief: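 Cell-direct ELISA measured phospho-MAPK, with fluorescence read at 595 nm from AmpliFlu Red. Before fixation, PANC-1 cells starved overnight received 6 hours of compound (30 μM single dose or serial dilutions, 0.3% DMSO, 37° C), followed by 1.5 ng/ml EGF for 15 min.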

| Structure (SMILES) | inhibition at 10 µM [%] |
| --- | --- |
| Oc1nc(-c2ccccn2)nc2cc(-c3ccc(-c4ccccc4)cc3)sc12 [drawing 1319] | 25 to 50 |
| Cc1ccc(-c2csc3c(O)nc(-c4ccccn4)nc23)cc1 [drawing 1320] | 1 to 25 |
| Oc1nc(-c2ccccn2)nc2cc(-c3ccncc3)sc12 [drawing 1321] | 0 |
| Oc1nc(-c2ccccn2)nc2cc(-c3ccccc3)sc12 [drawing 1322] | 25 to 50 |
| COc1ccc(-c2cc3nc(-c4ccccn4)nc(O)c3s2)cc1 [drawing 1323] | 1 to 25 |
| Oc1nc(-c2ccccn2)nc2cc(-c3cccc(Br)c3)sc12 [drawing 1324] | 25 to 50 |
| COc1nc(-c2ccccn2)nc(Oc2cccc(C(F)(F)F)c2)c1O [drawing 1325] | 1 to 25 |
| COCCN(C)c1nc(-c2nccn2C)nc2sc(-c3ccccc3)c(-c3ccccc3)c12 [drawing 1326] | 76 to 100 |
| CC(C)OCCNc1nc(-c2nccn2C)nc2sc(-c3ccccc3)c(-c3ccccc3)c12 [drawing 1327] | 76 to 100 |
| Cn1ccnc1-c1nc(NCCOC(F)(F)F)c2c(-c3ccccc3)c(-c3ccccc3)sc2n1 [drawing 1328] | 76 to 100 |
| CC(O)CNc1nc(-c2nccn2C)nc2sc(-c3ccccc3)c(-c3ccccc3)c12 (centres unmarked) [drawing 1329] | 1 to 25 |
| COCCCNc1nc(-c2nccn2C)nc2sc(-c3ccccc3)c(-c3ccccc3)c12 [drawing 1330] | 76 to 100 |
| COC1CCN(c2nc(-c3nccn3C)nc3sc(-c4ccccc4)c(-c4ccccc4)c23)C1 (centres unmarked) [drawing 1331] | 76 to 100 |
| CCOCCOc1nc(-c2nccn2C)nc2sc(-c3ccccc3)c(-c3ccccc3)c12 [drawing 1332] | 0 |
| CCN(CC)CCOc1nc(-c2nccn2C)nc2sc(-c3ccccc3)c(-c3ccccc3)c12 [drawing 1333] | 76 to 100 |
| COCCNc1nc(-c2ccncn2)nc2sc(-c3ccccc3)c(-c3ccccc3)c12 [drawing 1334] | 1 to 25 |
| CCOCCNc1nc(-c2nccn2C)nc2sc(-c3ccccc3)c(-c3ccccc3)c12 [drawing 1335] | 76 to 100 |
| Cn1ccnc1-c1nc(NCCOC2CC2)c2c(-c3ccccc3)c(-c3ccccc3)sc2n1 [drawing 1336] | 76 to 100 |
| COCC(C)Nc1nc(-c2nccn2C)nc2sc(-c3ccccc3)c(-c3ccccc3)c12 (centres unmarked) [drawing 1337] | 76 to 100 |
| CC(CO)Nc1nc(-c2nccn2C)nc2sc(-c3ccccc3)c(-c3ccccc3)c12 (centres unmarked) [drawing 1338] | 25 to 50 |
| Cn1ccnc1-c1nc(NCCCO)c2c(-c3ccccc3)c(-c3ccccc3)sc2n1 [drawing 1339] | 1 to 25 |

| Structure (SMILES) | inhibition at 10 µM [%] |
| --- | --- |
| COCCNc1nc(-c2nccn2C)nc2sc(-c3ccccc3)c(-c3ccccc3Cl)c12 [drawing 1340] | 76 to 100 |
| COCCNc1nc(-c2nccn2C)nc2sc(-c3ccccc3Cl)c(-c3ccccc3)c12 [drawing 1341] | 76 to 100 |
| COCCNc1nc(-c2nccn2C)nc2sc(-c3ccncc3)c(-c3ccccc3)c12 [drawing 1342] | 0 |
| COCCNc1nc(-c2cn(C)cn2)nc2sc(-c3ccccc3)c(-c3ccccc3)c12 [drawing 1343] | 76 to 100 |
| COCCNc1nc(-c2nccn2C)nc2sc(C)c(-c3ccccc3)c12 [drawing 1344] | 51 to 75 |
| COCCNc1nc(-c2cn(C)cn2)nc2sc(C)c(-c3ccccc3)c12 [drawing 1345] | 25 to 50 |
| COCCNc1nc(-c2nccn2C)nc2sc(-c3cccc(OC)c3)c(-c3ccccc3)c12 [drawing 1346] | 76 to 100 |
| CC(C)COc1ccc(-c2c(-c3ccccc3)sc3c(O)nc(-c4nccn4C)nc23)cn1 [drawing 1347] | 51 to 75 |
| Cn1ccnc1-c1nc(O)c2sc(-c3ccccc3)c(-c3ccccc3)c2n1 [drawing 1348] | 51 to 75 |
| COCCNc1nc(-c2nccn2C)nc2sc(-c3ccccc3)c(-c3ccc(OC)cc3)c12 [drawing 1349] | 76 to 100 |
| COCCNc1nc(-c2nccn2C)nc2sc(C3CCOCC3)c(-c3ccccc3)c12 [drawing 1350] | 51 to 75 |
| COCCNc1nc(-c2cccc(N)n2)nc2sc(-c3ccccc3)c(-c3ccccc3)c12 [drawing 1351] | 51 to 75 |
| Cn1ccnc1-c1nc(O)c2sc(-c3ccccc3)c(-c3cccc(C(F)(F)F)c3)c2n1 [drawing 1352] | 0 |
| COc1ccc(-c2c(-c3ccccc3)sc3c(O)nc(-c4nccn4C)nc23)cn1 [drawing 1353] | 51 to 75 |
| Cc1sc2c(O)nc(-c3nccn3C)nc2c1-c1ccccc1 [drawing 1354] | 0 |
| Cn1ccnc1-c1nc(O)c2sc(-c3ccccc3)c(-c3ccccc3Cl)c2n1 [drawing 1355] | 51 to 75 |
| COCCNc1nc(-c2nccn2C)nc2sc(-c3ccccc3)c(-c3ccncc3)c12 [drawing 1356] | 25 to 50 |
| COCCNc1nc(-c2nccn2C)nc2sc(-c3ccc(OC)cc3)c(-c3ccccc3)c12 [drawing 1357] | 51 to 75 |
| Cn1ccnc1-c1nc(O)c2scc(-c3cccc(C(F)(F)F)c3)c2n1 [drawing 1358] | 25 to 50 |
| Cc1sc2c(O)nc(-c3nccn3C)nc2c1-c1cccc(C(F)(F)F)c1 [drawing 1359] | 1 to 25 |
| Cc1sc2c(O)nc(-c3nccn3C)nc2c1-c1ccc(OCC(C)C)nc1 [drawing 1360] | 25 to 50 |

| Structure (SMILES) | inhibition at 10 µM [%] |
| --- | --- |
| COc1ccc(-c2c(C)sc3c(O)nc(-c4nccn4C)nc23)cn1 [drawing 1361] | 25 to 50 |
| Cc1sc2c(O)nc(-c3nccn3C)nc2c1-c1ccccc1Cl [drawing 1362] | 1 to 25 |
| Cn1cnc(-c2nc(O)c3scc(-c4cccc(C(F)(F)F)c4)c3n2)c1 [drawing 1364] | 1 to 25 |
| CC(C)COc1ccc(-c2csc3c(O)nc(-c4cn(C)cn4)nc23)cn1 [drawing 1365] | 1 to 25 |
| Cn1cnc(-c2nc(O)c3scc(-c4cccc(OC(F)(F)F)c4)c3n2)c1 [drawing 1366] | 1 to 25 |
| Oc1nc(-c2ccncn2)nc2c(-c3cccc(C(F)(F)F)c3)csc12 [drawing 1367] | 1 to 25 |
| Oc1nc(-c2ncccn2)nc2c(-c3cccc(C(F)(F)F)c3)csc12 [drawing 1368] | 1 to 25 |
| CC(C)Oc1ccc(-c2csc3c(O)nc(-c4nccn4C)nc23)cc1F [drawing 1369] | 25 to 50 |
| Cc1sc2c(O)nc(-c3nccn3C)nc2c1-c1ccc(OC(C)C)c(F)c1 [drawing 1370] | 25 to 50 |
| CC(C)Oc1ccc(-c2c(-c3ccccc3)sc3c(O)nc(-c4nccn4C)nc23)cc1F [drawing 1371] | 25 to 50 |
| CC(C)COc1ccc(-c2csc3c(O)nc(-c4nccn4C)nc23)cn1 [drawing 1372] | 25 to 50 |
| COc1ccc(-c2csc3c(O)nc(-c4nccn4C)nc23)cn1 [drawing 1373] | 51 to 75 |
| Cn1ccnc1-c1nc(O)c2scc(-c3ccccc3)c2n1 [drawing 1374] | 76 to 100 |
| Cn1ccnc1-c1nc(O)c2scc(-c3ccccc3Cl)c2n1 [drawing 1375] | 25 to 50 |
| Cn1ccnc1-c1nc(O)c2scc(-c3ccc(F)cc3F)c2n1 [drawing 1376] | 0 |
| Cn1ccnc1-c1nc(O)c2scc(-c3cccc(Cl)c3)c2n1 [drawing 1377] | 25 to 50 |
| COC(C)(C)c1ccc(-c2csc3c(O)nc(-c4nccn4C)nc23)cc1 [drawing 1378] | 25 to 50 |
| Cn1ccnc1-c1nc(O)c2scc(-c3ccc(C(C)(C)C)cc3)c2n1 [drawing 1379] | 25 to 50 |
| COCCNc1nc(-c2ccccn2)nc2sc(-c3ccccc3)c(-c3ccccn3)c12 [drawing 1380] | 0 |
| Cc1sc2c(O)nc(-c3nccn3C)nc2c1-c1ccc(F)cc1F [drawing 1381] | 0 |
| COCCNc1nc(-c2nccn2C)nc2sc(-c3ccccc3)c(-c3ccccn3)c12 [drawing 1382] | 51 to 75 |

What follows are molecules tested against KRas G12D mutant protein (Homo sapiens (Human), UniProt P01116, G12D) (assay: Ras GTP binding domain inhibition assay (labeled GTP)). Settings: at 20 μM; read-out: KRas G12D % Inh.
Sequence of KRas G12D mutant protein (P01116-2 other isoform, or with tags, fused parts or gaps G12D): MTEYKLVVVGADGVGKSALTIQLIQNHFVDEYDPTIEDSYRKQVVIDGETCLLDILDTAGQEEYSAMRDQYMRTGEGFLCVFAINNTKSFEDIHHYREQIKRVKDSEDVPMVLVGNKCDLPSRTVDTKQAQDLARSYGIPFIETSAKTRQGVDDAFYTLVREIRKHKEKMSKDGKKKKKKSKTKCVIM
Method: The following method was developed as specific assay for KRas G12D mutant protein.
Buffer-I: • 50 mM Tris, pH 7.5 • 150 mM NaCl (optional) • 1 mM MgCl2 • 1 mM DTT. • KRas G12D mutant protein was expressed as a His-tagged protein. Purified His-KRas G12D protein was diluted in buffer-I to a final concentration of 3-10 μg/ml. • 200 μl of the diluted His-KRas G12D protein was added to a nickel coated 96 well plate and incubated overnight at 4° C. • The next day, wells were washed 3× in 200 μl of Buffer-I. • Then 200 μl of Buffer-I were added to each well in the presence of 1% DMSO. • Tested compounds were added to the protein-coated wells at a concentration of 20 μM, and incubated for 3 hours at room temperature. While performing IC50 measurements a serial dilution of all tested concentrations was prepared.
Then 22 μl of Cy3-GTP or Cy5-GTP was added to each well. The labeled GTP was incubated for 45 min. at room temperature. • Following GTP incubation, wells were washed 3× in Buffer-I, and 200 μl of Buffer-I were added to each well. • Following washes, the amount of bound labeled-GTP was measured with an Eppendorf AF2200 plate reader.

| Structure (SMILES) | inhibition at 20 µM [%] |
| --- | --- |
| O=C(c1csc2c(O)nc(-c3ccccn3)nc12)N1CCNC(c2ccc(O)cc2)C1 (centres unmarked) [drawing 3697] | 51 to 75 |
| CN(C)Cc1ccc(-c2csc3c(O)nc(-c4ccccn4)nc23)cc1F [drawing 3717] | 76 to 100 |
| Oc1nc(-c2ccccn2)nc2c(-c3ccccc3C(F)F)csc12 [drawing 3755] | 51 to 75 |
| CN(C)CCOc1cccc(-c2csc3c(O)nc(-c4ccccn4)nc23)c1 [drawing 3811] | 76 to 100 |

What follows are molecules tested against KRas G12D/Q61H double mutant (Homo sapiens (Human), UniProt P01116, G12D/Q61H) in the same assay as above. Settings: at 20 μM; read-out: KRas G12D Q61H % Inh.
Sequence of KRas G12D/Q61H double mutant (P01116-2 other isoform, or with tags, fused parts or gaps G12D/Q61H): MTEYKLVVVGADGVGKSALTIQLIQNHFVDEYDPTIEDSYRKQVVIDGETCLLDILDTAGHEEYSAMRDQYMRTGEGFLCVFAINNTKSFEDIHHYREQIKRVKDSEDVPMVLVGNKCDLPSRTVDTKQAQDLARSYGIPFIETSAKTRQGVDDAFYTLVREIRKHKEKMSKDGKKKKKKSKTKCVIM
Method in brief: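 Inhibition of labeled GTP binding is measured on immobilized His-KRas protein in Tris buffer pH 7.5 with 1 mM MgCl2 and 1 mM DTT.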

| Structure (SMILES) | inhibition at 20 µM [%] |
| --- | --- |
| O=C(c1csc2c(O)nc(-c3ccccn3)nc12)N1CCNC(c2ccc(O)cc2)C1 (centres unmarked) [drawing 3697] | 76 to 100 |
| CN(C)Cc1ccc(-c2csc3c(O)nc(-c4ccccn4)nc23)cc1F [drawing 3717] | 76 to 100 |
| Oc1nc(-c2ccccn2)nc2c(-c3ccccc3C(F)F)csc12 [drawing 3755] | 51 to 75 |
| CN(C)CCOc1cccc(-c2csc3c(O)nc(-c4ccccn4)nc23)c1 [drawing 3811] | 76 to 100 |
